Laboratory results: patent US12492173B2, “Herbicidal substituted N-tetrazolyl aryl carboxamides” (Bayer Aktiengesellschaft, priority 2019, dated 2025)

Columns and labels:
Assay type in all cases: in vivo
Amaranthus retroflexus [1] = assay: Pre-emergence herbicidal action, AMARE; set-up: key to Herbicidal action against AMARE: % activity: 100 = plants have died, 0 = like control plants; details: for herbicidal action AMARE: dosage 320 g/ha
Source text: (§1) 1. Pre-Emergence Herbicidal Action Against Harmful Plants Seeds of monocotyledonous and dicotyledonous weed plants and crop plants are laid out in sandy loam soil in wood-fiber pots and covered with soil. The compounds of the invention, formulated in the form of wettable powders (WP) or as emulsion concentrates (EC), are then applied to the surface of the covering soil in the form of an aqueous suspension or emulsion at a water application rate equating to 600 to 800 l/ha, with addition of 0.2% wetting agent. After the treatment, the pots are placed in a greenhouse and kept under good growth conditions for the trial plants. The damage to the test plants is scored visually after a test period of 3 weeks by comparison with untreated controls (herbicidal activity in percent (%): 100% activity=the plants have died, 0% activity=like control plants). […] The tables below illustrate, in an exemplary manner, the […] herbicidal action of the compounds according to the invention, the herbicidal activity being stated in percent. [table] In the experiments that follow, herbicidal action of numerous inventive compounds and the known compounds that are structurally closest from D1 (WO 2012/028579 A1) and D2 (WO 2018/202535 A1) were compared under the above-specified conditions by the pre-emergence and post-emergence method. The example numbers given in the tables relate to the compounds disclosed in the respective documents. In addition to the compounds disclosed in D1 and D2, the following compounds V-1 to V-14 that are encompassed by D1 or D2 but are not compounds specified therein were used in the comparative experiments: • V-1: 2-(methylsulfanyl)-3-(methylsulfinyl)-N-(1-methyl-1H-tetrazol-5-yl)-4-(trifluoromethyl)benzamide • V-2: 2-(methylsulfanyl)-3-(methylsulfonyl)-N-(1-methyl-1H-tetrazol-5-yl)-4-(trifluoromethyl)benzamide • V-3: 2,3-bis(ethylsulfanyl)-N-(1-methyl-1H-tetrazol-5-yl)-4-(trifluoromethyl)benzamide • V-4: 2-chloro-3-(ethylsulfanyl)-N-(1-methyl-1H-tetrazol-5-yl)-4-(trifluoromethyl)benzamide • V-5: 2-chloro-4-iodo-3-(methylsulfanyl)-N-(1-methyl-1H-tetrazol-5-yl)benzamide • V-6: 2-chloro-4-iodo-3-(methylsulfinyl)-N-(1-methyl-1H-tetrazol-5-yl)benzamide • V-7: 2-chloro-4-iodo-3-(methylsulfonyl)-N-(1-methyl-1H-tetrazol-5-yl)benzamide • V-8: 2-bromo-3-(methylsulfanyl)-N-(1-methyl-1H-tetrazol-5-yl)-4-(trifluoromethyl)benzamide • V-9: 2-bromo-3-(methylsulfinyl)-N-(1-methyl-1H-tetrazol-5-yl)-4-(trifluoromethyl)benzamide • V-10: 2-bromo-3-(methylsulfonyl)-N-(1-methyl-1H-tetrazol-5-yl)-4-(trifluoromethyl)benzamide • V-11: 2-bromo-3-(ethylsulfanyl)-N-(1-methyl-1H-tetrazol-5-yl)-4-(trifluoromethyl)benzamide • V-12: 2-bromo-3-(ethylsulfinyl)-N-(1-methyl-1H-tetrazol-5-yl)-4-(trifluoromethyl)benzamide • V-13: 2-bromo-3-(ethylsulfonyl)-N-(1-methyl-1-1H-tetrazol-5-yl)-4-(trifluoromethyl)benzamide • V-14: 2-cyclopropyl-3-(ethylsulfanyl)-N-(1-methyl-1H-tetrazol-5-yl)-4-(trifluoromethyl)benzamide Herbicidal Pre-Emergence Action: […]

Echinochloa crus-galli [2] = assay: Pre-emergence herbicidal action, ECHCG; details: for herbicidal action ECHCG: dosage 320 g/ha
Source text: as §1

Matricaria inodora [3] = assay: Pre-emergence herbicidal action, MATIN; details: dosage 320 g/ha
Source text: as §1

Polygonum convolvulus [4] = assay: Pre-emergence herbicidal action, POLCO; details: for herbicidal action POLCO: dosage 320 g/ha
Source text: as §1

Setaria viridis [5] = assay: Pre-emergence herbicidal action, SETVI; set-up: key to Herbicidal action against SETVI: % activity: 100 = plants have died, 0 = like control plants; details: for herbicidal action SETVI: dosage 320 g/ha
Source text: as §1

Stellaria media [6] = assay: Pre-emergence herbicidal action, STEME; set-up: key to Herbicidal action against STEME: % activity: 100 = plants have died, 0 = like control plants; details: for herbicidal action STEME: dosage 320 g/ha
Source text: as §1

Veronica persica [7] = assay: Pre-emergence herbicidal action, VERPE; set-up: key to Herbicidal action against VERPE: % activity: 100 = plants have died, 0 = like control plants; details: for herbicidal action VERPE: dosage 320 g/ha
Source text: as §1

Amaranthus retroflexus [8] = assay: Post-emergence herbicidal action, AMARE; set-up: key: % herbicidal action vs untreated; 100 = plants died, 0 = like control; details: post-emergence, dosage 80 g/ha
Protocol: (§2) [table] 2. Post-Emergence Herbicidal Action Against Harmful Plants Seeds of monocotyledonous and dicotyledonous weed and crop plants are laid out in sandy loam soil in wood-fiber pots, covered with soil and cultivated in a greenhouse under good growth conditions. 2 to 3 weeks after sowing, the test plants are treated at the one-leaf stage. The compounds of the invention, formulated in the form of wettable powders (WP) or as emulsion concentrates (EC), are then sprayed onto the green parts of the plants in the form of an aqueous suspension or emulsion at a water application rate equating to 600 to 800 l/ha, with addition of 0.2% wetting agent. After the test plants have been left to stand in the greenhouse under optimal growth conditions for about 3 weeks, the action of the preparations is assessed visually in comparison to untreated controls (herbicidal action in percent (%): 100% activity=the plants have died, 0% activity=like control plants). […] The tables below illustrate, in an exemplary manner, the post-emergence herbicidal action of the compounds according to the invention, the herbicidal activity being stated in percent. In the experiments that follow, herbicidal action of numerous inventive compounds and the known compounds that are structurally closest from D1 (WO 2012/028579 A1) and D2 (WO 2018/202535 A1) were compared under the above-specified conditions by the pre-emergence and post-emergence method. The example numbers given in the tables relate to the compounds disclosed in the respective documents. In addition to the compounds disclosed in D1 and D2, the following compounds V-1 to V-14 that are encompassed by D1 or D2 but are not compounds specified therein were used in the comparative experiments: • V-1: 2-(methylsulfanyl)-3-(methylsulfinyl)-N-(1-methyl-1H-tetrazol-5-yl)-4-(trifluoromethyl)benzamide • V-2: 2-(methylsulfanyl)-3-(methylsulfonyl)-N-(1-methyl-1H-tetrazol-5-yl)-4-(trifluoromethyl)benzamide • V-3: 2,3-bis(ethylsulfanyl)-N-(1-methyl-1H-tetrazol-5-yl)-4-(trifluoromethyl)benzamide • V-4: 2-chloro-3-(ethylsulfanyl)-N-(1-methyl-1H-tetrazol-5-yl)-4-(trifluoromethyl)benzamide • V-5: 2-chloro-4-iodo-3-(methylsulfanyl)-N-(1-methyl-1H-tetrazol-5-yl)benzamide • V-6: 2-chloro-4-iodo-3-(methylsulfinyl)-N-(1-methyl-1H-tetrazol-5-yl)benzamide • V-7: 2-chloro-4-iodo-3-(methylsulfonyl)-N-(1-methyl-1H-tetrazol-5-yl)benzamide • V-8: 2-bromo-3-(methylsulfanyl)-N-(1-methyl-1H-tetrazol-5-yl)-4-(trifluoromethyl)benzamide • V-9: 2-bromo-3-(methylsulfinyl)-N-(1-methyl-1H-tetrazol-5-yl)-4-(trifluoromethyl)benzamide • V-10: 2-bromo-3-(methylsulfonyl)-N-(1-methyl-1H-tetrazol-5-yl)-4-(trifluoromethyl)benzamide • V-11: 2-bromo-3-(ethylsulfanyl)-N-(1-methyl-1H-tetrazol-5-yl)-4-(trifluoromethyl)benzamide • V-12: 2-bromo-3-(ethylsulfinyl)-N-(1-methyl-1H-tetrazol-5-yl)-4-(trifluoromethyl)benzamide • V-13: 2-bromo-3-(ethylsulfonyl)-N-(1-methyl-1-1H-tetrazol-5-yl)-4-(trifluoromethyl)benzamide • V-14: 2-cyclopropyl-3-(ethylsulfanyl)-N-(1-methyl-1H-tetrazol-5-yl)-4-(trifluoromethyl)benzamide Herbicidal Pre-Emergence Action: […]

Echinochloa crus-galli [9] = assay: Post-emergence herbicidal action, ECHCG; set-up: key: % herbicidal action vs untreated; 100 = plants died, 0 = like control; details: post-emergence, dosage 80 g/ha
Protocol: as §2

Matricaria inodora [10] = assay: Post-emergence herbicidal action, MATIN; set-up: key: % herbicidal action vs untreated; 100 = plants died, 0 = like control; details: post-emergence, dosage 80 g/ha
Protocol: as §2

Pharbitis purpurea = assay: Post-emergence herbicidal action, PHBPU; details: post-emergence, dosage 80 g/ha
Protocol: as §2

Polygonum convolvulus [11] = assay: Post-emergence herbicidal action, POLCO; details: post-emergence, dosage 80 g/ha
Protocol: as §2

Setaria viridis [12] = assay: Post-emergence herbicidal action, SETVI; set-up: key: % herbicidal action vs untreated; 100 = plants died, 0 = like control; details: post-emergence, dosage 80 g/ha
Protocol: as §2

Stellaria media [13] = assay: Post-emergence herbicidal action, STEME; set-up: key: % herbicidal action vs untreated; 100 = plants died, 0 = like control; details: post-emergence, dosage 80 g/ha
Protocol: as §2

Veronica persica [14] = assay: Post-emergence herbicidal action, VERPE; set-up: key: % herbicidal action vs untreated; 100 = plants died, 0 = like control; details: post-emergence, dosage 80 g/ha
Protocol: as §2

Viola tricolor [15] = assay: Post-emergence herbicidal action, VIOTR; set-up: key: % herbicidal action vs untreated; 100 = plants died, 0 = like control; details: post-emergence, dosage 80 g/ha
Protocol: as §2

Abutilon theophrasti [16] = assay: Pre-emergence herbicidal action, ABUTH; details: dosage 320 g/ha
Source text: as §1

Viola tricolor [17] = assay: Pre-emergence herbicidal action, VIOTR; details: dosage 320 g/ha
Source text: as §1

Avena fatua = assay: Post-emergence herbicidal action, AVEFA; set-up: key: % herbicidal action vs untreated; 100 = plants died, 0 = like control; details: post-emergence, dosage 80 g/ha
Protocol: as §2

Abutilon theophrasti [18] = assay: Post-emergence herbicidal action, ABUTH; set-up: key: % herbicidal action vs untreated; 100 = plants died, 0 = like control; details: post-emergence, dosage 80 g/ha
Protocol: as §2

[19] = comparative experiment, 20 g of a.i./ha

| Compound | herbicidal action AMARE (Amaranthus retroflexus [1]) [%] | herbicidal action ECHCG (Echinochloa crus-galli [2]) [%] | herbicidal action MATIN (Matricaria inodora [3]) [%] | herbicidal action POLCO (Polygonum convolvulus [4]) [%] | herbicidal action SETVI (Setaria viridis [5]) [%] | herbicidal action STEME (Stellaria media [6]) [%] | herbicidal action VERPE (Veronica persica [7]) [%] | Herbicidal action against AMARE (Amaranthus retroflexus [8]) | Herbicidal action against ECHCG (Echinochloa crus-galli [9]) | Herbicidal action against MATIN (Matricaria inodora [10]) | Herbicidal action against PHBPU (Pharbitis purpurea) | Herbicidal action against POLCO (Polygonum convolvulus [11]) | Herbicidal action against SETVI (Setaria viridis [12]) | Herbicidal action against STEME (Stellaria media [13]) | Herbicidal action against VERPE (Veronica persica [14]) | Herbicidal action against VIOTR (Viola tricolor [15]) | herbicidal action ABUTH (Abutilon theophrasti [16]) [%] | herbicidal action VIOTR (Viola tricolor [17]) [%] | Herbicidal action against ABUTH (Abutilon theophrasti [18]) | also measured |
| --- | --- | --- | --- | --- | --- | --- | --- | --- | --- | --- | --- | --- | --- | --- | --- | --- | --- | --- | --- | --- |
| CCn1nnnc1NC(=O)c1ccc(C)c(CS(C)(=O)=O)c1Cl [Example 2-289] | 100 | 100 | 100 | 80 | 100 | 90 | 90 | 100 | 100 | 100 | 90 | 80 | 100 | 100 | 90 | 80 |  |  |  |  |
| CCCn1nnnc1NC(=O)c1ccc(C(F)F)c(C[S+](C)[O-])c1C (stereo not drawn) [Example 3-108] | 100 | 90 | 100 |  | 90 |  | 90 | 80 | 80 | 90 | 100 |  |  | 100 | 100 | 100 | 100 | 100 |  | Herbicidal action against AVEFA (Avena fatua): 80 |
| CCS(=O)(=O)Cc1c(C(F)F)ccc(C(=O)Nc2nnnn2C)c1S(=O)(=O)CC [Example 1-229] | 100 | 100 | 90 | 100 |  | 100 | 100 | 80 | 90 |  | 80 | 80 |  | 100 | 90 | 90 |  | 100 | 100 |  |
| CCCn1nnnc1NC(=O)c1ccc(C)c(CS(C)(=O)=O)c1Cl [Example 3-289] | 100 | 100 | 100 | 80 |  |  | 90 | 90 | 90 | 100 |  |  |  | 90 | 90 |  | 80 |  | 80 |  |
| Cn1nnnc1NC(=O)c1ccc(I)c(S(C)(=O)=O)c1Cl [Example V-7, 2-chloro-4-iodo-3-(methylsulfonyl)-N-(1-methyl-1H-tetrazol-5-yl)benzamide, reference compound] |  |  |  |  |  |  |  |  |  |  |  |  |  |  |  |  |  |  |  | Herbicidal action against AMARE (Amaranthus retroflexus [1]; [19]): 30; pest or weed control at 20 g/ha (Echinochloa crus-galli [2]; Echinochloa crus-galli, 504 h, comparative experiment, 20 g of a.i./ha, read-out: Herbicidal action against ECHCG): 10%; Herbicidal action against POLCO (Polygonum convolvulus [4]; [19]): 0; Herbicidal action against SETVI (Setaria viridis [5]; [19]): 0; Herbicidal action against STEME (Stellaria media [6]; [19]): 0; Herbicidal action against VERPE (Veronica persica [7]; [19]): 40 |
| CCCn1nnnc1NC(=O)c1ccc(S(C)(=O)=O)c(C[S+](C)[O-])c1C (stereo not drawn) [Example 3-38] | 90 |  | 100 | 80 |  | 90 | 100 | 100 | 90 | 80 |  |  | 80 | 100 | 100 | 100 |  | 100 | 90 |  |
